The values below are quoted from earlier work in patent publication EP0275444A1, “Pharmaceutical form for urapidil” (BYK GULDEN LOMBERG CHEMISCHE FABRIK GMBH, priority 1986, dated 1988).

Each structure is given as a SMILES string. Read-outs that look alike come from different tables or passages of the source.

The conditions of series [1]: in vivo.

For the molecule `COc1ccccc1N1CCN(CCCNc2cc(=O)n(C)c(=O)n2C)CC1` [Urapidil, 6-({3-[4-(o-Methoxyphenyl)-1-piperazinyl]propyl}amino)-1,3-dimethyluracil], the Löslichkeit result (at the higher pH values of the intestine) is given as “ausreichende Löslichkeit”. In series [1], the Eliminationshalbwertzeit is 2,7 Stunden.

With `OCCN(CCO)c1nc(N2CCCCC2)c2nc(N(CCO)CCO)nc(N3CCCCC3)c2n1` [Dipyridamol], the Löslichkeit entry (above pH 4, in water) is reported as “praktisch wasserunlöslich”.
